Among the test systems are BT-549 breast; HCC-2998 colon; MDA-MB-435; NCI-H460 lung; OVCAR-3 ovarian; OVCAR-5 ovarian; OVCAR-8 ovarian; SK-MEL-2 melanoma; SR leukemia; T-47D breast.
Common to all, as to assay: NCI-60 cell line screen, 48 h

Several values for one entry are separate records, joined by “and”; a condition that tells them apart may be missing. Equal entries are not always repeated.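 All cell lines were grown in 96-well plates and treated with compound for 48 hours. The concentration for 50% growth inhibition is given as GI50. TGI denotes the concentration required for complete inhibition of growth.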 Where only a bound is given, the exact number is not on record here.

With `CN1CCN(CCC=C2c3ccccc3Sc3ccc(S(=O)(=O)N(C)C)cc32)CC1`, the GI50 is 8.06 µM and 13 µM with BT-549 breast; 1.55 µM and 2.57 µM with HCC-2998 colon; 1.89 µM and 2.08 µM with MDA-MB-435; 3.51 µM and 3.47 µM with NCI-H460 lung; 3.84 µM and 6.44 µM in the assay on OVCAR-3 ovarian; 10.9 µM and 14.8 µM with OVCAR-5 ovarian. Moreover, the GI50 was 5.85 µM and 15.2 µM with OVCAR-8 ovarian; 2.37 µM and 2.48 µM with SK-MEL-2 melanoma; 2.19 µM with SR leukemia; 1.52 µM and 3.85 µM in the assay with T-47D breast. For the same molecule, the TGI in the assay on BT-549 breast was 23 µM and 29.2 µM; in the assay on HCC-2998 colon, 3.21 µM and 6.84 µM; with MDA-MB-435, 4.28 µM and 5.82 µM; in the assay on NCI-H460 lung it was 14.8 µM and 14 µM; in the assay with OVCAR-3 ovarian, 16.3 µM and 22.7 µM; in the assay with OVCAR-5 ovarian it was 38.8 µM and 30 µM. In addition, the TGI is 24.6 µM and 36.4 µM with OVCAR-8 ovarian; 4.32 µM and 6.09 µM with SK-MEL-2 melanoma; 7.74 µM with SR leukemia; 3.42 µM and 16.7 µM in the assay with T-47D breast.
Regarding `C[C@]12CC[C@@H]3c4ccc(OC(=O)N(CCCl)CCCl)cc4CC[C@H]3[C@@H]1CC[C@@H]2OP(=O)(O)O`, the GI50 is 27.1 µM with BT-549 breast; greater than 74.4 µM with HCC-2998 colon; 15.6 µM with MDA-MB-435; 36.1 µM with NCI-H460 lung; 46.7 µM in the assay on OVCAR-3 ovarian; greater than 62.7 µM in the assay on OVCAR-5 ovarian. Further, the GI50 in the assay on OVCAR-8 ovarian is greater than 85.6 µM; in the assay on SK-MEL-2 melanoma, 41.8 µM; in the assay with SR leukemia it was 9.82 µM; with T-47D breast it was greater than 56.4 µM. The TGI with BT-549 breast is 79.1 µM; in the assay with HCC-2998 colon it was greater than 100 µM; in the assay with MDA-MB-435, 50.4 µM; in the assay on NCI-H460 lung, greater than 100 µM; with OVCAR-3 ovarian, greater than 95.2 µM; in the assay with OVCAR-5 ovarian, greater than 100 µM. Moreover, the TGI with OVCAR-8 ovarian was greater than 100 µM; in the assay on SK-MEL-2 melanoma, greater than 100 µM; in the assay on SR leukemia, 33.3 µM; with T-47D breast, greater than 100 µM.
For the molecule `COC(=O)Nc1nc2ccc(C(=O)c3ccc(F)cc3)cc2[nH]1`, the GI50 in the assay with BT-549 breast is 2.44 µM; in the assay with HCC-2998 colon it was 0.173 µM; with MDA-MB-435, 0.0335 µM; with NCI-H460 lung it was 0.336 µM; in the assay on OVCAR-3 ovarian, 0.0517 µM; in the assay with OVCAR-5 ovarian, 2.45 µM. The GI50 with OVCAR-8 ovarian is 0.639 µM; in the assay with SK-MEL-2 melanoma, 4.14 µM; in the assay with SR leukemia, 0.0442 µM; with T-47D breast, 0.338 µM. The TGI with BT-549 breast is greater than 100 µM; in the assay on MDA-MB-435, 0.155 µM; in the assay with NCI-H460 lung it was greater than 100 µM; in the assay with OVCAR-3 ovarian, 0.211 µM; in the assay on OVCAR-5 ovarian it was greater than 100 µM; in the assay on OVCAR-8 ovarian, greater than 31.6 µM. Further, the TGI was greater than 49.8 µM with SK-MEL-2 melanoma, greater than 100 µM in the assay on SR leukemia and greater than 100 µM in the assay with T-47D breast.
With `COc1cc(C(=O)NN=C2c3ccccc3-c3ccccc32)cc(OC)c1OC`, the GI50 was 3.78 µM in the assay with BT-549 breast; 10.5 µM in the assay with HCC-2998 colon; 0.3 µM in the assay on MDA-MB-435; 3.17 µM in the assay with NCI-H460 lung; 2.33 µM in the assay with OVCAR-3 ovarian; 7.95 µM in the assay with OVCAR-5 ovarian. Also, the GI50 in the assay on OVCAR-8 ovarian is 4.93 µM; in the assay on SK-MEL-2 melanoma, 2.84 µM; with SR leukemia, 0.339 µM; in the assay with T-47D breast, 3.9 µM. The TGI with BT-549 breast is 28.9 µM; in the assay on HCC-2998 colon, 57.8 µM; with MDA-MB-435 it was 1.46 µM; with NCI-H460 lung, 26.6 µM; in the assay on OVCAR-3 ovarian it was 10.6 µM; with OVCAR-5 ovarian it was greater than 100 µM. Also, the TGI came out at 39 µM with OVCAR-8 ovarian, 12.7 µM in the assay with SK-MEL-2 melanoma, 10.6 µM in the assay with SR leukemia and 65.5 µM in the assay on T-47D breast.
For the molecule `O=C(Nc1cccc(-n2cc(-c3ccncc3)c(-c3ccc(Cl)c(O)c3)n2)c1)Nc1ccc(Cl)c(Cl)c1`, the GI50 with BT-549 breast is 1.7 µM; in the assay with HCC-2998 colon it was 2.89 µM; with MDA-MB-435, 1.1 µM; in the assay on NCI-H460 lung it was 0.993 µM; in the assay with OVCAR-3 ovarian it was 1.05 µM; in the assay on OVCAR-5 ovarian, 2.4 µM. Also, the GI50 is 1.21 µM in the assay on OVCAR-8 ovarian, 1.03 µM with SK-MEL-2 melanoma, 1.14 µM in the assay on SR leukemia and 1.55 µM in the assay with T-47D breast. Moreover, the TGI in the assay with BT-549 breast was 16.1 µM; in the assay with HCC-2998 colon, 13.9 µM; with MDA-MB-435 it was 6.05 µM; in the assay with NCI-H460 lung it was 3.57 µM; in the assay with OVCAR-3 ovarian, 3.15 µM; in the assay on OVCAR-5 ovarian it was greater than 32.5 µM. Also, the TGI is greater than 32.5 µM in the assay on OVCAR-8 ovarian, 2.64 µM with SK-MEL-2 melanoma, 15 µM in the assay on SR leukemia and 17.9 µM with T-47D breast.
In the case of `C=CC(=O)N1CCC[C@@H](n2nc(-c3ccc(Oc4ccccc4)cc3)c3c(N)ncnc32)C1`, the GI50 is greater than 7.69 µM in the assay with BT-549 breast; greater than 10 µM in the assay on HCC-2998 colon; greater than 10 µM in the assay on MDA-MB-435; greater than 10 µM with NCI-H460 lung; greater than 6.8 µM with OVCAR-3 ovarian; greater than 10 µM in the assay with OVCAR-5 ovarian. In addition, the GI50 in the assay on OVCAR-8 ovarian is greater than 8.16 µM; in the assay on SK-MEL-2 melanoma, greater than 10 µM; with SR leukemia, greater than 10 µM; in the assay on T-47D breast, 0.0945 µM. In addition, the TGI with BT-549 breast, with HCC-2998 colon, with MDA-MB-435, in the assay on NCI-H460 lung, in the assay with OVCAR-3 ovarian and in the assay on OVCAR-5 ovarian was greater than 10 µM throughout. In addition, the TGI in the assay with OVCAR-8 ovarian, in the assay on SK-MEL-2 melanoma, with SR leukemia and in the assay on T-47D breast was greater than 10 µM each time.
With `O=C(N/N=C/c1ccncc1)c1ccc(F)cc1`, the GI50 in the assay with BT-549 breast, in the assay on HCC-2998 colon, in the assay with MDA-MB-435, in the assay with NCI-H460 lung, in the assay on OVCAR-3 ovarian and with OVCAR-5 ovarian was greater than 40 µM throughout. Also, the GI50 with OVCAR-8 ovarian, in the assay with SK-MEL-2 melanoma, in the assay on SR leukemia and in the assay on T-47D breast was greater than 40 µM each time. Further, the TGI in the assay on BT-549 breast, in the assay with HCC-2998 colon, with MDA-MB-435, in the assay with NCI-H460 lung, in the assay on OVCAR-3 ovarian and in the assay with OVCAR-5 ovarian was greater than 40 µM in each case. Also, the TGI in the assay with OVCAR-8 ovarian, in the assay with SK-MEL-2 melanoma, in the assay on SR leukemia and with T-47D breast was greater than 40 µM throughout.

Source of the values: PubChem BioAssay (NCI).
